According to patent publication US20230219886A1, “NOVEL SELENO-NSAID ANALOGS AND USES THEREOF” (THE PENN STATE RESEARCH FOUNDATION, priority 2020, published 2023):
Read-outs that look alike come from different tables or passages of the source.

Legend:
[1] = system: PANC-1 (pancreatic carcinoma); assay: MTT cell viability assay, Panc-1; conditions: Homo sapiens, PANC-1, 48 h, read-out: cell viability
Experimental: (§1) Cell Culture Conditions. The cell lines were obtained from the American Type Culture Collection (ATCC). PANC-1 and Caco-2 cell lines were maintained in DMEM medium (Gibco); HT-29, HCT-116 and RKO cells were maintained in McCoy's 5A medium (Gibco); and DU-145 and H1299 cells were maintained in RPMI 1640 medium (Gibco), supplemented with 10% fetal bovine serum (FBS; Gibco) and 1% antibiotics (10.00 units/mL penicillin and 10.00 mg/mL streptomycin; Gibco). Cells were preserved in tissue culture flasks at 37° C. and 5% CO2. Culture medium was replaced every three days.
(§2) Cell Viability Assay. The effect of each compound on cell viability was tested using the MTT assay (81). Briefly, 9000 cells/well were grown in 96-well plates for 12 h. Then these cells were incubated with either DMSO (control) or nine different concentration between 0.01-50 μM of the test compounds for 24, 48, and 72 h. Three hours before the termination point, 20 μL of MTT were added to measure cellular viability. The resultant formazan crystals were dissolved in 50 μL of DMSO, and absorbance was measured at 570 nm and 630 nm wavelengths. IC50, GI50, TGI and LC50 values were calculated using OriginPro 8.5.1.
(§3) Evaluation of the antiproliferative activities of the novel molecules. […] These four cell lines were treated with each compound at three concentrations (5, 25 and 50 μM) for 48 h.

HT-29 (CRC) = assay: MTT cell viability assay, HT-29; conditions: for viability at 5 µM / viability at 25 µM / viability at 50 µM / GI50 / IC50: Homo sapiens; for viability at 5 µM / viability at 25 µM / viability at 50 µM: read-out: cell viability
Experimental: as §1, §2, §3

[2] = system: DU-145 (prostate carcinoma); assay: MTT cell viability assay, DU-145; conditions: Homo sapiens, DU-145, 48 h, read-out: cell viability
Experimental: as §1, §2, §3

H1299 (lung carcinoma) = assay: MTT cell viability assay, H1299; conditions: Homo sapiens, NCI-H1299, 48 h, read-out: cell viability
Experimental: as §1, §2, §3

HCT-116 CRC cells = assay: MTT cell viability assay, HCT-116; type: cell-based, human; conditions: Homo sapiens, read-out: IC50
Experimental: as §1, §2

CACO-2 CRC cells = assay: cells; conditions: Homo sapiens
Experimental: as §1, §2

RKO CRC cells = assay: cells; conditions: Homo sapiens
Experimental: as §1, §2

Compound | viability at 5 µM [1] | viability at 25 µM [1] | viability at 50 µM [1] | viability at 5 µM (HT-29 (CRC); HT-29, 48 h) | viability at 25 µM (HT-29 (CRC); HT-29, 48 h) | viability at 50 µM (HT-29 (CRC); HT-29, 48 h) | viability at 5 µM [2] | viability at 25 µM [2] | viability at 50 µM [2] | viability at 5 µM (H1299 (lung carcinoma)) | viability at 25 µM (H1299 (lung carcinoma)) | viability at 50 µM (H1299 (lung carcinoma)) | TGI (HT-29 (CRC); HT-29, 24 h) | TGI (HT-29 (CRC); HT-29, 48 h) | TGI (HT-29 (CRC); HT-29, 72 h) | GI50 (HT-29 (CRC); HT-29, 24 h) | IC50 (HT-29 (CRC); HT-29, 24 h) | GI50 (HT-29 (CRC); HT-29, 48 h) | IC50 (HT-29 (CRC); HT-29, 48 h) | GI50 (HT-29 (CRC); HT-29, 72 h) | other results
C[Se]C(=O)c1ccccc1Nc1cccc(C)c1C [Compound 4a, Se-methyl 2-((2,3-dimethylphenyl)amino)benzoselenoate] | 47.5 ± 5.9% | 26.3 ± 3.9% | 22.6 ± 3% | 41.6 ± 6.4% | 16.6 ± 4.7% | 22.6 ± 0.7% | 58 ± 14.1% | 29.7 ± 10.9% | 32 ± 6.5% | 98.7 ± 0.4% | 99.4 ± 0.3% | 100% |  |  |  |  |  |  |  |  | 
Cc1cccc(Nc2ccccc2C(=O)O)c1C [Mf, mefenamic acid, reference compound] | 72.4 ± 5.6% | 61.9 ± 10.9% | 65.9 ± 5.1% | 91.9 ± 4.9% | 75.7 ± 4.1% | 64.9 ± 4.5% | 100% | 100% | 100% | 71.4 ± 15.5% | 44.9 ± 1.4% | 39.4 ± 1.3% |  |  |  |  |  |  |  |  | 
C[Se]C(=O)c1cc(-c2ccc(F)cc2F)ccc1O [Compound 2a, Se-methyl 2′,4′-difluoro-4-hydroxy-[1,1′-biphenyl]-3-carboselenoate] | 53.5 ± 9.7% | 38.5 ± 8.1% | 39.1 ± 11.1% | 46.6 ± 11.9% | 23.5 ± 7.2% | 28.4 ± 2.7% | 53.9 ± 14.1% | 40.7 ± 8.3% | 39.5 ± 2.7% | 96.8 ± 19.8% | 80 ± 10.7% | 79.9 ± 9% |  |  |  |  |  |  |  |  | 
CC1=C(CC(=O)O)c2cc(F)ccc2/C1=C\c1ccc([S+](C)[O-])cc1 (stereo not drawn) [Sulin, sulindac, reference compound] | 88 ± 22.5% | 90.6 ± 28.9% | 84.5 ± 32.7% | 99.1 ± 2.4% | 97.3 ± 2.1% | 98.6 ± 3.1% | 82.2 ± 1.9% | 83.2 ± 7.2% | 85.5 ± 3.7% | 87.5 ± 2.5% | 72.5 ± 2.7% | 84.9 ± 12.1% | >50 µM | >50 µM | >50 µM | > 50 µM | > 50 µM | > 50 µM | > 50 µM | > 50 µM | IC50 (HT-29 (CRC); HT-29, 72 h): > 50 µM; IC50 (HCT-116 CRC cells; HCT-116, 24 h): > 50 µM; IC50 (HCT-116 CRC cells; HCT-116, 48 h): > 50 µM; IC50 (HCT-116 CRC cells; HCT-116, 72 h): > 50 µM; IC50 (CACO-2 CRC cells; Caco-2, 24 h): > 50 µM; IC50 (CACO-2 CRC cells; Caco-2, 48 h): > 50 µM; IC50 (CACO-2 CRC cells; Caco-2, 72 h): > 50 µM; IC50 (RKO CRC cells; 24 h): > 50 µM; IC50 (RKO CRC cells; 48 h): > 50 µM; IC50 (RKO CRC cells; 72 h): > 50 µM
CC(=O)Oc1ccccc1C(=O)O [ASA, aspirin, reference compound] | 86.7 ± 5.4% | 63.8 ± 3.1% | 68.6 ± 5.1% | 73.1 ± 13% | 57.2 ± 11.3% | 35.5 ± 7.7% | 89.8 ± 11% | 85.3 ± 25.1% | 90.9 ± 24.6% | 44.1 ± 4.4% | 51.1 ± 1.6% | 58.3 ± 3.6% | >50 µM | >50 µM | >50 µM | > 50 µM | > 50 µM | > 50 µM | > 50 µM | > 50 µM | IC50 (HT-29 (CRC); HT-29, 72 h): > 50 µM; IC50 (HCT-116 CRC cells; HCT-116, 24 h): > 50 µM; IC50 (HCT-116 CRC cells; HCT-116, 48 h): > 50 µM; IC50 (HCT-116 CRC cells; HCT-116, 72 h): > 50 µM; IC50 (CACO-2 CRC cells; Caco-2, 24 h): > 50 µM; IC50 (CACO-2 CRC cells; Caco-2, 48 h): > 50 µM; IC50 (CACO-2 CRC cells; Caco-2, 72 h): > 50 µM; IC50 (RKO CRC cells; 24 h): > 50 µM; IC50 (RKO CRC cells; 48 h): > 50 µM; IC50 (RKO CRC cells; 72 h): > 50 µM
O=C(O)c1cc(-c2ccc(F)cc2F)ccc1O [Dfl, diflunisal, reference compound] | 77.9 ± 5.4% | 75.5 ± 6.9% | 68.5 ± 9.3% | 93.2 ± 5.7% | 82.7 ± 9.8% | 74.7 ± 2% | 71 ± 6.9% | 71.5 ± 9.1% | 78.9 ± 6.4% | 85.2 ± 3.6% | 94.3 ± 3.9% | 88.7 ± 7.8% |  |  |  |  |  |  |  |  | 
